This is an account of results in patent US7585895B2, “Therapeutic substituted cyclopentanes” (Allergan, Inc., priority 2005, dated 2009).

The term EC50 denotes the concentration needed to bring the measured effect to its halfway point.

Bounds are passed on as bounds.

Common to all, as to format: cell-based
One assay concerns the target T1, hEP4/Gqs5 (Homo sapiens, UniProt P35408).
T1 construct: expressed in transfected cells
Kind of assay: FLIPR calcium signal, EP4. Particulars: HEK-293(EBNA); for EC50: read-out: Ca2+ Signal-EC50 (nM) EP4. The protocol:
(§1) HEK-293(EBNA) cells, stably expressing one type or subtype of recombinant human prostaglandin receptors (prostaglandin receptors expressed: hDP/Gqs5; hEP1; hEP2/Gqs5; hEP3A/Gqi5; hEP4/Gqs5; hFP; hIP; hTP), were cultured in 100 mm culture dishes in high-glucose DMEM medium containing 10% fetal bovine serum, 2 mM 1-glutamine, 250 μg/ml geneticin (G418) and 200 μg/ml hygromycin B as selection markers, and 100 units/ml penicillin G, 100 μg/ml streptomycin and 0.25 μg/ml amphotericin B.
(§2) Cells were seeded at a density of 5×10^4 cells per well in Biocoat® Poly-D-lysine-coated black-wall, clear-bottom 96-well plates (Becton-Dickinson) and allowed to attach overnight in an incubator at 37° C. Cells were then washed two times with HBSS-HEPES buffer (Hanks Balanced Salt Solution without bicarbonate and phenol red, 20 mM HEPES, pH 7.4) using a Denley Cellwash plate washer (Labsystems). After 45 minutes of dye-loading in the dark, using the calcium-sensitive dye Fluo-4 AM at a final concentration of 2 μM, plates were washed four times with HBSS-HEPES buffer to remove excess dye leaving 100 μl in each well. Plates were re-equilibrated to 37° C. for a few minutes.
(§3) Cells were excited with an Argon laser at 488 nm, and emission was measured through a 510-570 nm bandwidth emission filter (FLIPR™, Molecular Devices, Sunnyvale, Calif.). Drug solution was added in a 50 μl volume to each well to give the desired final concentration. The peak increase in fluorescence intensity was recorded for each well. On each plate, four wells each served as negative (HBSS-HEPES buffer) and positive controls (standard agonists: BW245C (hDP); PGE2 (HEP1; hEP2/Gqs5; hEP3A/Gqi5; hEP4/Gqs5); PGF2α (hFP); carbacyclin (hIP); U-46619 (hTP), depending on receptor). The peak fluorescence change in each drug-containing well was then expressed relative to the controls.
(§4) Compounds were tested in a high-throughput (HTS) or concentration-response (CoRe) format. In the HTS format, forty-four compounds per plate were examined in duplicates at a concentration of 10^−5 M. To generate concentration-response curves, four compounds per plate were tested in duplicates in a concentration range between 10^−5 and 10^−11 M. The duplicate values were averaged. In either, HTS or CoRe format each compound was tested on at least 3 separate plates using cells from different passages to give an n≧3.

The next assay has as its target T2, hEP3A/Gqi5 (Homo sapiens, UniProt P43115).
T2 construct: expressed in transfected cells
T2 sequence (P43115 1-390): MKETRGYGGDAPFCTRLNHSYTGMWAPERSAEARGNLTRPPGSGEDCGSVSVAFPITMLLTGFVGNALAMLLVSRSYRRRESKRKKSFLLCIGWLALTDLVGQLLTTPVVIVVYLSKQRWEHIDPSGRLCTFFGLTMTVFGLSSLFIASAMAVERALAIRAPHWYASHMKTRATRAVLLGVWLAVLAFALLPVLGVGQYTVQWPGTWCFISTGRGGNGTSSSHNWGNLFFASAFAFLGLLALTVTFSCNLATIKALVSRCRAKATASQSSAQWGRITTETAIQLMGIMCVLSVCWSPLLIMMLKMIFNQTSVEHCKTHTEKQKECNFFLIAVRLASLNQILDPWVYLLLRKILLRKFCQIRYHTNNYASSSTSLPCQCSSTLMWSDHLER
As to the kind of experiment: FLIPR calcium signal, EP3. The settings on record: HEK-293(EBNA); for EC50: read-out: Ca2+ Signal-EC50 (nM) EP3. The protocol: as §1, §2, §3, §4

A further assay addresses T3, hEP2/Gqs5 (Homo sapiens, UniProt P43116).
T3 construct: expressed in transfected cells
As to the kind of experiment: FLIPR calcium signal, EP2. Particulars: HEK-293(EBNA), value outside parentheses, read-out: Ca2+ Signal-EC50 (nM) EP2. The protocol: as §1, §2, §3, §4

For another assay, the target named is T4, hEP1 (Homo sapiens, UniProt P34995).
T4 construct: expressed in transfected cells
T4 sequence (P34995 1-402): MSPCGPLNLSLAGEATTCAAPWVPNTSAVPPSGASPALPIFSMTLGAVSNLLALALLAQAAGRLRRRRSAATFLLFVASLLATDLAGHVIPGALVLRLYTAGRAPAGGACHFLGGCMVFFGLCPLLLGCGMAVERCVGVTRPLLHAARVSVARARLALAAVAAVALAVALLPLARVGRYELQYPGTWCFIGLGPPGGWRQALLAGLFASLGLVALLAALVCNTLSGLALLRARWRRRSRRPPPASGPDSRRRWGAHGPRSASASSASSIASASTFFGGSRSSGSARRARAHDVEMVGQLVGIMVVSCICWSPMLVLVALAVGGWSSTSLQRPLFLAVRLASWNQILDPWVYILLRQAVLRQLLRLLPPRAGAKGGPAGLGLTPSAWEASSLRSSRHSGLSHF
Kind of assay: FLIPR calcium signal, EP1. Particulars: HEK-293(EBNA). The protocol: as §1, §2, §3, §4

A further assay deals with EP2 (Homo sapiens, UniProt P43116). As to the kind of experiment: cAMP assay, HEK-EBNA cells expressing EP2. On the set-up: expressed in transfected cells; host or cells: HEK-EBNA. The settings on record: value in parentheses in EP2 column, read-out: EP2 EC50 (nM), measurement of cAMP (data in parentheses). The protocol: A 384-well drug plate was prepared to contain 6 test compounds, PGE2 and cAMP in 16 serial dilutions in triplicate, using a Biomek station. HEK-EBNA cells expressing a target PG receptor subtype (EP2 or EP4) were suspended in a stimulation buffer (HBSS, 0.1% BSA, 0.5 mM IBMX and 5 mM HEPES, pH 7.4) in a density of 10^4 cells/5 μl. The reaction was initiated by mixing 5 μL drug dilutions with 5 μl of HEK-EBNA cells in a well, carried out for 30 min at room temperature, and followed by the addition of 5 μl anti-cAMP acceptor beads in the control buffer with Tween-20 (25 mM NaCl, 0.03% Tween-20, 5 mM HEPES, pH7.4). After 30 min in the dark at room temperature, the mixtures were incubated with 15 μl biotinylated-cAMP/strepavidin donor beads in Lysis/Detection buffer (0.1% BSA, 0.3% Tween-20 and 5 mM HEPES, pH7.4) for 45 min at the room temperature. Fluorescence changes were read using a Fusion-alpha HT microplate reader.
Chain of EP2 (P43116 whole entry): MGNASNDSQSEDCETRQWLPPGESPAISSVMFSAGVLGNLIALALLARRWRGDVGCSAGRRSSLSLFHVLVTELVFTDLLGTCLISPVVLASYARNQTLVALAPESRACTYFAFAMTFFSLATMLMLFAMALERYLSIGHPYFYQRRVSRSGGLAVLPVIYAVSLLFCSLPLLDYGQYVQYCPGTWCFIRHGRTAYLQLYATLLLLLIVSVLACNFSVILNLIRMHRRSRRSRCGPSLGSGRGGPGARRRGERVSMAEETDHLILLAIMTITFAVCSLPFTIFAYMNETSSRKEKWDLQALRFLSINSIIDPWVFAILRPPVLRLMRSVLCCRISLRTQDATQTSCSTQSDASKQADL
In general terms: cAMP levels reflect the balance of adenylyl cyclase and phosphodiesterase activity.

For the next assay, the target named is T5, hTP (Homo sapiens, UniProt P21731).
T5 construct: expressed in transfected cells
T5 sequence (P21731 1-343): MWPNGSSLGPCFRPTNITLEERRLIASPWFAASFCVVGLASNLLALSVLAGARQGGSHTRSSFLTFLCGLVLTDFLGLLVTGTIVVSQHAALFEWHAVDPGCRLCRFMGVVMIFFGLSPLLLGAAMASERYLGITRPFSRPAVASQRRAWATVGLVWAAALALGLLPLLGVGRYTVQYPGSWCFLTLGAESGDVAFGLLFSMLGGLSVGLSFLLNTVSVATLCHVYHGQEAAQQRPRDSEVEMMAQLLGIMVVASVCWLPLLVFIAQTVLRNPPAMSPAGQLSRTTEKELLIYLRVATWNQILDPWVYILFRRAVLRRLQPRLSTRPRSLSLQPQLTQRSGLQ
As to the kind of experiment: FLIPR calcium signal, TP. The settings on record: HEK-293(EBNA). The method, then: as §1, §2, §3, §4

T1 sequence (P35408 whole entry): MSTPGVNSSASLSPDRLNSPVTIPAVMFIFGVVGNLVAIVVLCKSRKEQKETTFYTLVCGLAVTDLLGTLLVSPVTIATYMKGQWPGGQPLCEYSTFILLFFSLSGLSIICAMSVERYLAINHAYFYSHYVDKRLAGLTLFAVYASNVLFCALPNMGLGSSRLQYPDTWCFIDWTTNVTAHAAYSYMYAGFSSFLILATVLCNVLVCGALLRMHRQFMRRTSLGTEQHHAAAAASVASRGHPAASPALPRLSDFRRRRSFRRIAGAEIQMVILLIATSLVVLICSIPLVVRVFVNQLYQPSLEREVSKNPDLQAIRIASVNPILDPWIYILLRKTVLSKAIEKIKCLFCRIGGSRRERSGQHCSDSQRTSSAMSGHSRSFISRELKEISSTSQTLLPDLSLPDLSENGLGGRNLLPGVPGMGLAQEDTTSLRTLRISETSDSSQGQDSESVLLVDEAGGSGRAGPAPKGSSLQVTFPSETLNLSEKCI
T3 sequence (P43116 whole entry): as the sequence (P43116 whole entry) above

For the compound `CCCCCC(O)c1ccc([C@@H]2[C@@H](C/C=C\CCCC(=O)O)[C@H](F)C[C@H]2O)cc1` (mixture of isomers) [Entry 8, (Z)-7-{(1R,2S,3R,5R)-5-Fluoro-3-hydroxy-2-[4-(1-hydroxy-hexyl)-phenyl]-cyclopentyl}-hept-5-enoic acid], the “Ca2+ Signal-EC50 (nM) EP4” value on hEP4/Gqs5 is reported as “not active”. For the same compound, the EC50 at hEP3A/Gqi5 was 1450 nM; on hEP2/Gqs5, 53 nM; at EP2, 8 nM. On hEP1, the “Ca2+ Signal-EC50 (nM) EP1” value was “not active”. On hTP, the “Ca2+ Signal-EC50 (nM) TP” value is recorded as “not active”.

For `CCCCCC(O)c1ccc([C@@H]2[C@@H](C/C=C\CCCC(=O)O)[C@H](Cl)C[C@H]2O)cc1` (mixture of isomers) [Entry 11, (Z)-7-{(1R,2S,3R,5R)-5-Chloro-3-hydroxy-2-[4-(1-hydroxy-hexyl)-phenyl]-cyclopentyl}-hept-5-enoic acid], the EC50 is greater than 10000 nM at hEP4/Gqs5, 456 nM at hEP3A/Gqi5, 7 nM at hEP2/Gqs5 and 3 nM on EP2. For the same compound, the “Ca2+ Signal-EC50 (nM) EP1” value on hEP1 is “not active”. The “Ca2+ Signal-EC50 (nM) TP” value at hTP is on record as “not active”.

Turning to `O=C(O)CCC/C=C\C[C@@H]1[C@@H](c2ccc(C(O)CC3CCCCC3)cc2)[C@H](O)C[C@H]1Cl` (mixture of isomers) [Entry 17, (Z)-7-{(1R,2S,3R,5R)-5-Chloro-2-[4-(2-cyclohexyl-1-hydroxy-ethyl)-phenyl]-3-hydroxy-cyclopentyl}-hept-5-enoic acid], the “Ca2+ Signal-EC50 (nM) EP4” value on hEP4/Gqs5 was “not active”. The “Ca2+ Signal-EC50 (nM) EP3” value on hEP3A/Gqi5 is “not active”. Also, the EC50 was 953 nM at hEP2/Gqs5 and 495 nM at EP2. Besides, at hEP1, the “Ca2+ Signal-EC50 (nM) EP1” value is on record as “not active”. Besides, the “Ca2+ Signal-EC50 (nM) TP” value at hTP is “not active”.

`CC(C)(C)CCCC(O)c1ccc([C@@H]2[C@@H](CCCCCCC(=O)O)[C@H](Cl)C[C@H]2O)cc1` (mixture of isomers) [Entry 20, 7-{(1R,2S,3R,5R)-5-Chloro-3-hydroxy-2-[4-(1-hydroxy-5,5-dimethyl-hexyl)-phenyl]-cyclopentyl}-heptanoic acid]: the EC50 on hEP4/Gqs5 is 10700 nM; on hEP3A/Gqi5, 4450 nM; at hEP2/Gqs5, 5390 nM; at EP2, greater than 10000 nM. Moreover, the “Ca2+ Signal-EC50 (nM) EP1” value on hEP1 is recorded as “not active”. Besides, the “Ca2+ Signal-EC50 (nM) TP” value on hTP is reported as “not active”.

For the compound `O=C(O)CCC/C=C\C[C@@H]1[C@@H](c2ccc(C(O)Cc3ccccc3)cc2)[C@H](O)C[C@H]1Cl` (mixture of isomers) [Entry 21, (Z)-7-{(1R,2S,3R,5R)-5-Chloro-3-hydroxy-2-[4-(1-hydroxy-2-phenyl-ethyl)-phenyl]-cyclopentyl}-hept-5-enoic acid], the figures for the EC50 on hEP4/Gqs5, on hEP2/Gqs5 and at EP2 were greater than 10000 nM, 9 nM and 14 nM, respectively. Also, the “Ca2+ Signal-EC50 (nM) EP3” value at hEP3A/Gqi5 is listed as “not active”. For the same compound, the “Ca2+ Signal-EC50 (nM) EP1” value at hEP1 is listed as “not active”. At hTP, the “Ca2+ Signal-EC50 (nM) TP” value is on record as “not active”.

Take `CCCCC(O)c1ccc([C@@H]2[C@@H](C/C=C\CCCC(=O)O)[C@H](Cl)C[C@H]2O)cc1` (mixture of isomers) [Entry 27, (Z)-7-{(1R,2S,3R,5R)-5-Chloro-3-hydroxy-2-[4-(1-hydroxy-pentyl)-phenyl]-cyclopentyl}-hept-5-enoic acid]: the “Ca2+ Signal-EC50 (nM) EP4” value at hEP4/Gqs5 is “not active”. Besides, the “Ca2+ Signal-EC50 (nM) EP3” value on hEP3A/Gqi5 is given as “not active”. Also, the “Ca2+ Signal-EC50 (nM) EP1” value on hEP1 is listed as “not active”. In addition, the EC50 at EP2 turned out to be 10 nM. Further, the “Ca2+ Signal-EC50 (nM) TP” value at hTP is given as “not active”.

In the case of `CCCCC(O)C(C)(C)c1ccc([C@@H]2[C@@H](C/C=C\CCCC(=O)O)[C@H](Cl)C[C@H]2O)cc1` (mixture of isomers) [Entry 32, (Z)-7-{(1R,2S,3R,5R)-5-Chloro-3-hydroxy-2-[4-(2-hydroxy-1,1-dimethyl-hexyl)-phenyl]-cyclopentyl}-hept-5-enoic acid], the “Ca2+ Signal-EC50 (nM) EP4” value on hEP4/Gqs5 is recorded as “not active”. Further, the values for the EC50 at hEP3A/Gqi5, on hEP2/Gqs5 and on EP2 were 2810 nM, 164 nM and 9 nM, respectively. Moreover, the “Ca2+ Signal-EC50 (nM) EP1” value at hEP1 is “not active”. For the same compound, the “Ca2+ Signal-EC50 (nM) TP” value at hTP was “not active”.

Take `CCCCCC(O)c1ccc([C@@H]2[C@@H](C/C=C\CCCC(=O)O)[C@H](Cl)C[C@H]2O)cc1` (single isomer, unassigned) [Entry 12]: the EC50 is greater than 10000 nM at hEP4/Gqs5, 36 nM at hEP2/Gqs5 and 38 nM at EP2. Also, the “Ca2+ Signal-EC50 (nM) EP3” value on hEP3A/Gqi5 was “not active”. For the same compound, the “Ca2+ Signal-EC50 (nM) EP1” value on hEP1 is recorded as “not active”. The “Ca2+ Signal-EC50 (nM) TP” value on hTP is given as “not active”.

On to `CCCCCC(O)c1ccc([C@@H]2[C@@H](Cc3cccc(CCC(=O)O)c3)[C@H](Cl)C[C@H]2O)cc1` (stereo partly drawn) [Entry 3, 3-(3-{(1R,2S,3R,5R)-5-Chloro-3-hydroxy-2-[4-(1-hydroxy-hexyl)-phenyl]-cyclopentylmethyl}-phenyl)-propionic acid], for which the EC50 on hEP3A/Gqi5 came to 4670 nM; at hEP2/Gqs5, 158 nM; on EP2 it was 56 nM. In addition, at hEP1, the “Ca2+ Signal-EC50 (nM) EP1” value was “not active”. Moreover, on hTP, the “Ca2+ Signal-EC50 (nM) TP” value was “not active”.
